Laboratory results taken from patent publication US20160185774A1, “Anti-Infective Compounds” (priority 2013, published 2016).
In brackets after ≈: the same amount, converted by molar mass.

Experiments:
[1] = tested on: M. tuberculosis; assay: microbe, parasite or virus in culture; type: cell-based; conditions: Mycobacterium tuberculosis, 120 h; read-out: QUM (MIC80)
[2] = tested on: M. tuberculosis H37Rv; assay: In vivo activity in a murine model of acute tuberculosis infection (lung CFU); conditions: 50 mg/kg orally once daily, 3 days of treatment starting at day 6, female BalbC mice
Protocol: The effect of compounds 171 and 175 on the bacterial load of TB-infected mice was compared to that of the reference compound Isoniazid (INH). 8-week old female BalbC mice were infected with 8×10^6 M. tuberculosis H37Rv via intranasal inoculation. Mice were sacrificed at day 1 to control the number of CFU in the lungs. In the acute model of infection, mice were treated for 3 days, starting at day 6. Compounds were freshly dissolved in a 20% d-α-tocopheryl polyethylene glycol 1000 succinate (ETPGS) solution and administered by oral gavage as single dose per day. Bacterial load was assessed in lungs after homogenizing the organs in 1×PBS. Serial dilutions of organs homogenates were spread on Middlebrook 7H11 plates and CFU were determined after 3 weeks incubation at 37° C. under 5% CO2.

| SMILES | melting point | MIC80 [1] [µM] | CFU in the lungs compared to untreated mice [2] |
| --- | --- | --- | --- |
| CCc1nc2ccc(Cl)cn2c1C(=O)NCc1ccc(CN2CCOCC2)cc1 [Compound 284] | 133 °C | < 1 |  |
| CCc1nc2ccc(Cl)cn2c1C(=O)NCc1ccc(C2CCOCC2)cc1 [Compound 258] | > 195.5 °C (dec.) | < 1 |  |
| CCc1nc2cc(Cl)ccn2c1C(=O)NCc1ccc(N2CC(COc3ccc(F)cc3)OC2=O)cc1 (stereo not drawn) [Compound 271] | > 97.1 °C | 1 to 20 (≈ 0.523 to 10.5 µg/mL) |  |
| COc1ccc2nc(C)c(C(=O)NCc3ccc(N4CCC(c5ccc(C(F)(F)F)cc5)CC4)cc3)n2c1 [Compound 291] | 207 °C | < 1 |  |
| CCc1nc2ccc(Cl)cn2c1C(=O)NCc1ccc(N2CCC(C(=O)Cc3ccc(F)cc3)CC2)cc1 [Compound 244] | 216.2 to 220.7 °C |  |  |
| CCc1nc2ccc(Cl)cn2c1C(=O)NCc1nc2ccc(Cl)cc2n1C [Compound 262] | > 220 °C | > 20 |  |
| CCc1nc2cc(Cl)ccn2c1C(=O)NCc1ccc(C2CCOCC2)cc1 [Compound 259] | > 156.6 °C (dec.) | < 1 |  |
| CCc1nc2ccc(Cl)cn2c1C(=O)NCc1cccc(N2CCN(c3ccc(OC(F)(F)F)cc3)CC2)c1 [Compound 251] | > 168 °C (dec.) | 1 to 20 (≈ 0.558 to 11.2 µg/mL) |  |
| CCc1nc2ccc(Cl)cn2c1C(=O)NCc1cccc(CC(=O)Nc2ccc(F)cc2)c1 [Compound 250] | > 198.8 °C (dec.) | > 20 |  |
| CCc1nc2cc(F)ccn2c1C(=O)NCc1ccc(N2CCC(c3ccc(OC(F)(F)F)cc3)CC2)cc1 [Compound 175] |  | < 1 | reduction of CFU compared to untreated mice |
| COc1ccc2nc(C)c(C(=O)NCc3ccc(N4CCC(c5ccc(F)cc5)CC4)cc3)n2c1 [Compound 289] | 192 °C | < 1 |  |
| CCc1nc2ccccn2c1C(=O)NCc1ccc(C2CCOCC2)cc1 [Compound 257] | > 133.7 °C (dec.) | < 1 |  |
| COc1ccc2nc(C)c(C(=O)NCc3ccc(N4CCC(c5ccc(OC(F)(F)F)cc5)CC4)cc3)n2c1 [Compound 292] | 183 °C | < 1 |  |
| CCc1nc2ccc(Cl)cn2c1C(=O)NCc1cccc(N(C)Cc2ccc(OC(F)(F)F)cc2)c1 [Compound 247] | > 142.3 °C (dec.) | 1 to 20 (≈ 0.517 to 10.3 µg/mL) |  |
| CCc1nc2ccc(Cl)cn2c1C(=O)NCc1nc2ccc(Cl)cc2o1 [Compound 264] | 201.1 to 201.8 °C | 1 to 20 (≈ 0.389 to 7.78 µg/mL) |  |
| Cc1ccc2nc(C)c(C(=O)NCc3ccc(N4CCC(c5ccc(F)cc5)CC4)cc3)n2c1 [Compound 293] | 181 °C | < 1 |  |
| CCc1nc2cc(Cl)ccn2c1C(=O)NCc1nc2ccc(-c3ccc(OC(F)(F)F)cc3)cc2o1 [Compound 269] | > 220 °C | < 1 |  |
| CCc1nc2cc(C)ccn2c1C(=O)NCc1ccc(N2CCC(c3ccc(OC(F)(F)F)cc3)CC2)cc1 [Compound 171] |  | < 1 | reduction of CFU compared to untreated mice |
| CCc1nc2ccc(Cl)cn2c1C(=O)NCc1ccc(N(C)c2ccc(OC(F)(F)F)cc2)cc1 [Compound 286] | 138 °C | < 1 |  |
| CCc1nc2ccc(Cl)cn2c1C(=O)NCc1cccc(N2CCC(c3ccc(OC(F)(F)F)cc3)CC2)c1 [Compound 249] | 135.5 to 136.4 °C | > 20 |  |

| SMILES | melting point | MIC80 [1] [µM] | CFU in the lungs compared to untreated mice [2] |
| --- | --- | --- | --- |
| CCc1nc2cc(Cl)ccn2c1C(=O)NCc1nc2cc(-c3ccc(OC(F)(F)F)cc3)ccc2o1 [Compound 265] | > 220 °C | 1 to 20 (≈ 0.515 to 10.3 µg/mL) |  |
| CCc1nc2ccc(F)cn2c1C(=O)NCc1ccc(N2CCC(c3ccc(OC(F)(F)F)cc3)CC2)cc1 [Compound 267] | > 167.9 °C (dec.) | < 1 |  |
| CCc1nc2ccc(Cl)cn2c1C(=O)NCc1ccc(CN2CCOC2=O)cc1 [Compound 282] | 179 °C | 1 to 20 (≈ 0.413 to 8.26 µg/mL) |  |
| CCc1nc2ccc(Cl)cn2c1C(=O)NCc1nc2cc(Cl)ccc2n1C [Compound 263] | > 220 °C | > 20 |  |
| CCc1nc2cc(Cl)ccn2c1C(=O)NCc1ccc(CN2CCOC2=O)cc1 [Compound 283] | 172 °C | 1 to 20 (≈ 0.413 to 8.26 µg/mL) |  |
| Cc1ccc2nc(C)c(C(=O)NCc3ccc(N4CCC(c5ccc(OC(F)(F)F)cc5)CC4)cc3)n2c1 [Compound 296] | 184 °C | < 1 |  |
| CCc1nc2ccc(Cl)cn2c1C(=O)NCc1ccc(CC2CCOCC2)cc1 [Compound 253] | 132.2 to 133 °C | < 1 |  |
| CCc1nc2ccc(Cl)cn2c1C(=O)NCc1cccc(OCc2ccc(OC(F)(F)F)cc2)c1 [Compound 248] | > 142.7 °C (dec.) | 1 to 20 (≈ 0.504 to 10.1 µg/mL) |  |
| CCc1nc2cc(Cl)ccn2c1C(=O)NCc1ccc(CC2CCOCC2)cc1 [Compound 254] | > 125.9 °C (dec.) | < 1 |  |
| CCc1nc2ccc(Cl)cn2c1C(=O)NCc1cc2cc(Cl)ccc2o1 [Compound 261] | 223.5 to 225.6 °C | < 1 |  |
| CCc1nc2cc(Cl)ccn2c1C(=O)NCc1ccc(N(C)c2ccc(OC(F)(F)F)cc2)cc1 [Compound 287] | 134 °C | < 1 |  |
| CCc1nc2ccc(Cl)cn2c1C(=O)NCc1nc2ccc(Cl)cc2s1 [Compound 266] | > 220 °C | 1 to 20 (≈ 0.405 to 8.11 µg/mL) |  |
| CCc1nc2ccc(Cl)cn2c1C(=O)NCc1cc2cc(Cl)ccc2s1 [Compound 256] | > 220 °C | < 1 |  |
| CCc1nc2ccc(Cl)cn2c1C(=O)NCc1cccc(N2CCC(Oc3ccc(OC(F)(F)F)cc3)CC2)c1 [Compound 255] | 126.3 to 127.2 °C | > 20 |  |
| CCc1nc2cc(Cl)ccn2c1C(=O)NCc1ccc(N2CC(Cc3ccc(F)cc3)OC2=O)cc1 (stereo not drawn) [Compound 270] | > 96.9 °C (dec.) | < 1 |  |
| Cc1ccc2nc(C)c(C(=O)NCc3ccc(N4CCC(c5ccc(Cl)cc5)CC4)cc3)n2c1 [Compound 294] | 188 °C | < 1 |  |
| COc1ccc2nc(C)c(C(=O)NCc3ccc(N4CCC(c5ccc(C)cc5)CC4)cc3)n2c1 [Compound 290] | 178 °C | < 1 |  |
| CCc1nc2c(F)cccn2c1C(=O)NCc1ccc(N2CCC(c3ccc(OC(F)(F)F)cc3)CC2)cc1 [Compound 268] | > 177.7 °C (dec.) | < 1 |  |
| CCc1nc2ccccn2c1C(=O)NCc1ccc(N(C)c2ccc(OC(F)(F)F)cc2)cc1 [Compound 288] | 120 °C | < 1 |  |
| CCc1nc2cc(Cl)ccn2c1C(=O)NCc1ccc(CN2CCOCC2)cc1 [Compound 285] | 107 °C | < 1 |  |

| SMILES | melting point | MIC80 [1] [µM] | CFU in the lungs compared to untreated mice [2] |
| --- | --- | --- | --- |
| COc1ccc(C2CCN(c3ccc(CNC(=O)c4c(C)nc5ccc(C)cn45)cc3)CC2)cc1 [Compound 295] | 184 °C | < 1 |  |
| CCc1nc2ccc(Cl)cn2c1C(=O)NCc1ccc(N2CCOCC2)c(F)c1 [Compound 307] |  | < 1 |  |
| CCc1nc2c(OC)cccn2c1C(=O)NCc1ccc(N2CCC(c3ccccc3)CC2)cc1 [Compound 177] |  | < 1 |  |
| CCc1nc2cc(OC)ccn2c1C(=O)NCc1ccc(N2CCC(c3ccc(C)cc3)CC2)cc1 [Compound 23] |  | < 1 |  |
| CCc1nc2cc(Cl)ccn2c1C(=O)NCc1ccc(N2CCOCC2)c(F)c1 [Compound 308] |  | < 1 |  |
| CCc1nc2ccc(F)cn2c1C(=O)NCc1ccc(N2CCC(c3ccc(C)cc3)CC2)cc1 [Compound 115] |  | < 1 |  |
| Cc1nc2ccc(F)cn2c1C(=O)NCc1ccc(N2CCC(c3ccc(OC(F)(F)F)cc3)CC2)cc1 [Compound 316] |  | < 1 |  |
| CCc1nc2ccccn2c1C(=O)NCc1ccc(N2CCC(c3ccccc3)CC2)cc1 [Compound 170] |  | < 1 |  |
| Cc1nc2c(F)cccn2c1C(=O)NCc1ccc(N2CCC(c3ccc(F)cc3)CC2)cc1 [Compound 311] |  | < 1 |  |
| CCc1nc2cc(Cl)ccn2c1C(=O)NCc1ccc2nc[nH]c2c1 [Compound 276] |  | > 20 |  |
| CCc1nc2ccc(C(F)(F)F)cn2c1C(=O)NCc1ccc(N2CCC(c3ccc(OC(F)(F)F)cc3)CC2)cc1 [Compound 223] |  | < 1 |  |
| CCc1nc2ccc(Br)cn2c1C(=O)NCc1ccc(N2CCC(c3ccc(OC)cc3)CC2)cc1 [Compound 2] |  | < 1 |  |
| CCc1nc2ccc(OC)cn2c1C(=O)NCc1ccc(N2CCN(c3ccc(C)cc3)CC2)cc1 [Compound 100] |  | < 1 |  |
| CCc1nc2ccccn2c1C(=O)NCc1ccc(N2CCN(c3ccc(Cl)cc3)CC2)cc1 [Compound 37] |  | < 1 |  |
| CCc1nc2c(Br)cccn2c1C(=O)NCc1ccc(N2CCC(c3ccccc3)CC2)cc1 [Compound 168] |  | 1 to 20 (≈ 0.517 to 10.3 µg/mL) |  |
| CCc1nc2cc(Cl)ccn2c1C(=O)NCc1csc(-c2ccc(OC(F)(F)F)cc2)n1 [Compound 279] |  | < 1 |  |
| CCc1nc2c(Br)cccn2c1C(=O)NCc1ccc(N2CCC(c3ccc(OC)cc3)CC2)cc1 [Compound 89] |  | 1 to 20 (≈ 0.547 to 10.9 µg/mL) |  |
| CCc1nc2ccc(Cl)cn2c1C(=O)NCc1ccc(NC23CC4CC(CC(C4)C2)C3)cc1 [Compound 321] |  | < 1 |  |
| CCc1nc2c(C)cccn2c1C(=O)NCc1ccc(N2CCN(c3ccc(F)cc3)CC2)cc1 [Compound 83] |  | < 1 |  |
